Test results reported in US12178830B2, “Compositions and methods for adoptive cell therapy for cancer” (MEMORIAL SLOAN KETTERING CANCER CENTER, priority 2017, dated 2024).
Values joined by “and” are separate entries in the source; they are usually repeats but may differ in a detail not shown here. Identical values can stand only once. Like-named read-outs stand apart in the source and are kept apart here.

Key:
[1] = test system: normal human fibroblast MRC5; test: CellTitre Glo in vitro cytotoxicity, MRC5; assay type: cell-based
Experimental: (§1) In vitro cytotoxicity of AMS-related structures was also assessed to determine the modifications of AMS that alter cytotoxicity. The in vitro cytotoxicity of each of these AMS-related structures was tested against both hepatocellular carcinoma HepG2 and normal human fibroblast MRC5 cell lines using a CellTitre Glo® assay (Promega, Madison, WI) The modifications and results are provided in Table 1 below.

[2] = test system: hepatocellular carcinoma HepG2; test: CellTitre Glo in vitro cytotoxicity, HepG2; assay type: cell-based
Experimental: This example describes the synthesis of exemplary prodrugs based on sulfamoyladenosine (AMS) (structure 1c) (FIG. 2C) for cleavage by the bacterial hydrolase enzyme CPG2. AMS is a close analog of nucleocidin and a potent cytotoxic molecule (HepG2 IC50=9 nM). […] Based on these SAR data, AMS prodrug 1a (“P-AMS”; FIG. 2C) was synthesized from 2′,3′-O-isopropylidene-5′-O-TBS-adenosine (structure 3, FIG. 2D) by 6-N-acylation with CDI-activated bis-O-t-Bu-glutamate (30%), desilylation (TBAF), sulfamoylation (H2NSO2C1, DMA), and acetonide hydrolysis (TFA, H2O, 15% over 3 steps). Two alternative N-sulfamate-linked prodrugs (not shown) attached via CO-PAB-CO and TML-CO linkers were synthesized (FIG. 2B). A more detailed discussion of the P-AMS synthesis and the synthesis of the N-sulfamate-linked prodrug attached via a TML-CO linker (“Trimethyllock-AMS”) is provided below in this example. As an alternative cytotoxic using a known anticancer therapeutic, the mustard prodrug ZD2767P (structure 2a, FIG. 2C) was also synthesized as previously reported (Springer et al., J Med Chem. 37(15):2361-70(1994) and Niculescu-Duvaz et al., Tetrahedron Lett. 46(40):6919-22 (2005)).
as §1

[3] = test system: HEK293T (kidney); test: CellTitre Glo in vitro cytotoxicity, HEK293T; assay type: cell-based, human
[4] = test system: primary T-cells; test: CellTitre Glo in vitro cytotoxicity, primary T cells; assay type: cell-based, human
[5] = test system: Jurkat (T cell); test: CellTitre Glo in vitro cytotoxicity, Jurkat; assay type: cell-based, human
[6] = test system: HL 60 (leukemia); test: CellTitre Glo in vitro cytotoxicity, HL 60; assay type: cell-based
Experimental: (§2) The in vitro cytotoxicity of AMS (structure 1c) and its prodrug variant (structure 1a) was tested against a variety of cell lines using a CellTitre Glo® assay (Promega, Madison, WI). […] Moreover, co-treatment with the prodrug and supernatant from CPG2-transfected HEK293T cells (see Example 3) led to cytotoxicity approaching that of the free drug (50 nM), consistent with CPG2-mediated cleavage of the prodrug to release the active parent drug. […] In contrast, AMS prodrug 1a was not activated by HEK293T cells expressing CPG intracellularly, which likely attributed to poor cell-penetrance of the prodrug due to the free bis-anionic gluatamate moiety.

[7] = test system: non-small cell lung carcinoma cell line HCC827; test: CellTitre-Glo viability, HCC827; assay type: cell-based, human; conditions: HCC827, 48 hours
Experimental: Human Jurkat T cells, primary T cells and human non-small cell lung carcinoma cell lines PC9 and HCC827 were treated with increasing concentrations of the receptor tyrosine kinase inhibitor Erlotinib. […] Cell viability was measured at 48 hours by CellTitre-Glo® luminescence.

[8] = test system: non-small cell lung carcinoma cell line PC9; test: CellTitre-Glo viability, PC9; assay type: cell-based, human
Experimental: FIG. 14 provides exemplary data showing that Human T cells, but not cancer cells, are resistant to Erlotinib. (A) Human Jurkat T cells (red circle) and human non-small cell lung carcinoma cell lines PC9 (black square) and HCC827 (blue triangle) were treated with increasing concentrations of the receptor tyrosine kinase inhibitor Erlotinib. […] Cell viability was measured at 48 hours by CellTitre-Glo® luminescence.
FIG. 14 provides exemplary data showing that Human T cells, but not cancer cells, are resistant to Erlotinib. Human Jurkat T cells, primary T cells and human non-small cell lung carcinoma cell lines PC9 and HCC827 were treated with increasing concentrations of the receptor tyrosine kinase inhibitor Erlotinib. […] PC9 cells were incubated in the presence of Erlotinib, P-Erlotinib, or P-Erlotinib in the presence of purified CPG2. Cell viability was measured at 48 hours by CellTitre-Glo® luminescence.

[9] = Cell permeability in CACO-2 cells; assay type: in vitro ADME, human; conditions: human
[10] = test system: lung adenocarcinoma cells (HCC827); test: Co-culture of GFP+ 293tCPGTM cells with HCC827 plus erlotinib prodrug; assay type: cell-based; conditions: 293tCPGTM:HCC827 various ratios, 120 hr
Experimental: FIG. 15 provides exemplary data showing the pro-drug activity of 293T cells expressing transmembrane CPG2. GFP+293t^CPGTM cells were co-cultured with lung adenocarcinoma cells (HCC827) at various ratios (293t^CPGTM:HCC827) and the erlotinib prodrug (p-erlotinib) was added. (A) Cells were analyzed at 120 hour by flow cytometry and % GFP was calculated. (B) Ratio of 293t^CPGTM cells to HCC827 cells was calculated for each cell ratio.
The retroviral constructs encoding the anti-CD19 CAR and transmembrane CPG2 enzyme described above were transduced into 293T cells to test the conversion activity of transmembrane CPG2 for an Erlotinib prodrug. GFP+293t^CPGTM cells were co-cultured with lung adenocarcinoma cells (HCC827) at various ratios (293t^CPGTM:HCC827) and the erlotinib prodrug (p-erlotinib) was added. Cells were analyzed at 120 hr. by flow cytometry (FIG. 15A) and the percentage of GFP cells and the ratio of 293t^CPGTM cells to HCC827 cells was calculated for each cell ratio (FIG. 15B).

[11] = test system: Jurkat T cells; test: Jurkat viability with prodrug plus supernatant from CPG2-secreting HEK293T cells; assay type: cell-based, human
Experimental: as §2
Jurkat T cells were exposed to increasing concentrations of AMS (circle) or Pro-AMS with media alone (triangle) or supernatant from CPG2-secreting HEK293T cells (square). Cell viability was measured at 48 hours by CellTitre-Glo® luminescence assay.
Jurkat T cells were exposed to increasing concentrations of ZD2767P with media alone (triangle) or supernatant from CPG2-secreting HEK293T cells (square). Cell viability was measured at 48 hours by CellTitre-Glo® luminescence assay.

[12] = test system: SET2 cells; test: SET2 viability with prodrug plus recombinant enzyme or enzyme-containing supernatant; assay type: cell-based; conditions: Beta-lactamase supernatant; control media did not
Experimental: Recombinant CPG2 protein was initially synthesized, purified (FIGS. 18A and 18B), and incubated with increasing concentrations of prodrug in a glutamate release assay (FIG. 17C). Mass spectrometry was used to determine that the glutamate moiety was released from all of the glutamate prodrugs. The in vitro cytotoxicity of the prodrugs (FIG. 17B) were tested against the myeloid leukemia cell line SET2 using a CellTitre Glo® assay (Promega, Madison, WI).
SET2 cells were exposed to increasing concentrations of AMS (square) or glut-AMS with media alone (− control, triangle) or supernatant from CPG2-secreting HEK293t cells (circle). Cell viability was measured by CellTitre-Glo® luminescence assay.
Thus, antigen-dependent expansion of SEAKER T cells results in increased output of enzyme into the extracellular milieu.
To determine to respective enzyme output of the Beta-lactamase constructs relative to the previous CPG2 constructs, a quantitative sandwich ELISA was used to determine the concentration (ng/mL) of purified recombinant CPG2, and a quantitative nitrocefin assay was used to determine the concentration (ng/mL) of purified recombinant Beta-lactamase (FIG. 25A). Cell viability was measured by CellTitre-Glo® luminescence in the presence of prodrug (glut-AMS or ceph-AMS) and varying concentrations of purified recombinant CPG2 or Beta-lactamase (FIG. 25B).

[13] = test system: myeloid leukemia cell line SET2; test: CellTitre Glo in vitro cytotoxicity, SET2; assay type: cell-based; conditions: Set2; prodrug vs AMS
[14] = Caco-2, with Ver (so in the source), concentration not stated, + Ver

| SMILES | IC50 [1] | IC50 ([2]; read-out: IC50, HepG2) | also measured |
| --- | --- | --- | --- |
| Nc1nc(N)c2ncn([C@@H]3O[C@H](COS(N)(=O)=O)[C@@H](O)[C@H]3O)c2n1 [2-NH2-AMS] | < 1 µM and 1.17 µM | < 1 µM and 1.75 µM |  |
| Nc1nc(Nc2ccccc2)nc2c1ncn2[C@@H]1O[C@H](COS(N)(=O)=O)[C@@H](O)[C@H]1O [2-NHPh-AMS] | 124 µM | > 500 µM |  |
| Nc1nc(-c2ccccc2)nc2c1ncn2[C@@H]1O[C@H](COS(N)(=O)=O)[C@@H](O)[C@H]1O [2-phenyl-AMS] | > 500 µM | ~500 µM |  |
| Nc1ncnc2c1ncn2[C@H]1C[C@H](O)[C@@H](COS(N)(=O)=O)O1 [2′-deoxy-AMS] |  | < 1 µM and 0.55 µM |  |
| NS(=O)(=O)OC[C@H]1O[C@@H](n2cnc3c(NC4CC4)ncnc32)[C@H](O)[C@@H]1O [6-NCyp-AMS] | 7.2 µM | 10.9 µM |  |
| CNc1ncnc2c1ncn2[C@@H]1O[C@H](COS(N)(=O)=O)[C@@H](O)[C@H]1O [6-NHMe-AMS] | 0.9 µM | 1.8 µM |  |
| CN(C)c1ncnc2c1ncn2[C@@H]1O[C@H](COS(N)(=O)=O)[C@@H](O)[C@H]1O [6-NMe2-AMS] | > 500 µM | > 500 µM |  |
| COc1ncnc2c1ncn2[C@@H]1O[C@H](COS(N)(=O)=O)[C@@H](O)[C@H]1O [6-OMe-AMS] | 129 µM | 141 µM |  |
| Nc1ncnc2c1nc(Cl)n2[C@@H]1O[C@H](COS(N)(=O)=O)[C@@H](O)[C@H]1O [8-Cl-AMS] | 3.2 µM and 3.51 µM |  |  |
| CCCc1nc2c(N)ncnc2n1[C@@H]1O[C@H](COS(N)(=O)=O)[C@@H](O)[C@H]1O [8-propyl-AMS] | > 500 µM | > 500 µM |  |
| Nc1ncnc2c1ncn2[C@@H]1O[C@H](CNS(N)(=O)=O)[C@@H](O)[C@H]1O [AMSN] | 0.39 µM | 0.36 µM |  |
| Nc1ncnc2c1ncn2[C@@H]1O[C@H](COS(N)(=O)=O)[C@@H](O)[C@H]1O [AMS] | 0.03 µM |  | IC50 ([3]; HEK293T, read-out: IC50): 0.666 µM; IC50 ([4]; primary T-cells, read-out: IC50): 0.066 µM; IC50 ([5]; Jurkat, read-out: IC50): 0.018 µM; IC50 ([2]; read-out: HepG2 IC50): 0.009 µM; IC50 [6]: 0.07 µM |
| Nc1ccn([C@@H]2O[C@H](COS(N)(=O)=O)[C@@H](O)[C@H]2O)c(=O)n1 [CMS] | > 500 µM | > 500 µM |  |
| C#Cc1cccc(Nc2ncnc3cc(OCCOC)c(OCCOC)cc23)c1 [Erlotinib, reference compound] |  |  | response to increasing concentrations [7]: significant cell death; response to increasing concentrations ([4]; primary T cells): exhibited resistance; response to increasing concentrations ([5]; T cell lines (Jurkat), 48 hours): exhibited resistance; response to increasing concentrations ([8]; PC9, 48 hours): significant cell death |
| Nc1nc2c(ncn2[C@@H]2O[C@H](COS(N)(=O)=O)[C@@H](O)[C@H]2O)c(=O)[nH]1 [GMS] | > 500 µM | > 500 µM |  |
| NS(=O)(=O)OC[C@H]1O[C@@H](n2cnc3c(O)ncnc32)[C@H](O)[C@@H]1O [IMS] | > 500 µM | > 500 µM |  |
| CN(C)C(=O)C(CCN1CCC(O)(c2ccc(Cl)cc2)CC1)(c1ccccc1)c1ccccc1 [Loperamide] |  |  | Papp A→B [9, 14]: 10.5 ± 1.5 ×10⁻⁶ cm/s; Papp B→A [9, 14]: 7.8 ± 0.5 ×10⁻⁶ cm/s; Papp A→B ([9]; Caco-2): 2.2 ± 0.3 ×10⁻⁶ cm/s; Papp B→A ([9]; Caco-2): 16.9 ± 1.1 ×10⁻⁶ cm/s |
| C#Cc1cccc(N(Cc2ccc(NC(=O)N[C@@H](CCC(=O)O)C(=O)O)cc2)c2ncnc3cc(OCCOC)c(OCCOC)cc23)c1 [P-Erlotinib, ((4-(((6,7-bis(2-methoxyethoxy)quinazolin-4-yl)(3-ethynylphenyl)amino)methyl)phenyl)carbamoyl)-L-glutamic acid] |  |  | killing in co-culture with transmembrane CPG2 cells [10]: kills the target cancer cell, but not the cell secreting the enzyme; toxicity in PC9 cells ([8]; 1 μM, without CPG2, 48 hours): no toxicity; activity of cleaved prodrug in PC9 cells ([8]; in the presence of purified CPG2, 48 hours): comparable activity to the active drug |
| Cc1cn([C@H]2C[C@H](O)[C@@H](COS(N)(=O)=O)O2)c(=O)[nH]c1=O [TMS] | > 500 µM | > 500 µM |  |
| NS(=O)(=O)OC[C@H]1O[C@@H](n2ccc(=O)[nH]c2=O)[C@H](O)[C@@H]1O [UMS] | > 500 µM | > 500 µM |  |
| O=C(O)CC[C@H](NC(=O)Oc1ccc(N(CCI)CCI)cc1)C(=O)O [ZD2767P] |  |  | cell viability with prodrug and CPG2 supernatant ([11]; increasing prodrug, 48 hours, supernatant from CPG2-secreting HEK293T cells): significant decrease in cell viability; IC50 ([11]; with CPG2 supernatant): 1.7 µM |
| Nc1ncnc2c1ncn2[C@@H]1O[C@H](COS(=O)(=O)NCC2=C(C(=O)O)N3C(=O)[C@@H](NC(=O)Cc4cccs4)[C@H]3SC2)[C@@H](O)[C@H]1O [ceph-AMS] |  |  | SET2 cell viability with prodrug and Beta-lactamase supernatant [12]: significant decrease in cell viability; Selective Index ([3]; HEK293t, prodrug vs AMS): ~3; Selective Index ([4]; Human T cell, prodrug vs AMS): >6; Selective Index [13]: ~64 |
